Here are results for 12 compounds from ChEMBL document CHEMBL1201862, “PubChem BioAssay data set” (2004).

Molecules are shown by their SMILES.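 Values below derive from 48-hour exposures of cells grown in 96-well plates, with endpoints linearly interpolated between the two concentrations bracketing the appropriate inhibition level. Here, GI50 denotes the concentration required for 50% inhibition of growth.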 Calls of active or inactive are those of the source. Rule as the data show it: active = GI50 up to about 1.1 µM and inactive = higher.

Some test systems named below: SN12C; K562; A549; HOP-92; SK-MEL-28; UO-31; OVCAR-3; Malme-3M; RPMI-8226; LOX IMVI; KM12; SNB-75; MDA-MB-231; M14; COLO 205; TK-10; ACHN; T47D; A498.
Common to all, as to test: DTP human tumour cell line panel, 48 h

Turning to `COC(=O)Cc1cc2c(cc1C(=O)c1ccc(N)cc1)OCO2`, the GI50 (usually the concentration at which growth is held to half of that of the control) with SN12C is 5.96 µM (inactive); with K562, 0.553 µM (active); in the test on A549, 3.62 µM (inactive); in the test with HOP-92, 2.37 µM (inactive); in the test with SK-MEL-28, 3.36 µM (inactive); in the test with UO-31, 13.6 µM (inactive). The GI50 is 0.755 µM (active) in the test on OVCAR-3; > 100 µM (inactive) with Malme-3M; 1.5 µM (inactive) in the test on RPMI-8226; 5.45 µM (inactive) with LOX IMVI; 0.488 µM (active) with KM12; 1.21 µM (inactive) in the test on SNB-75. Moreover, the GI50 with MDA-MB-231 was 3.42 µM (inactive); in the test on M14, 1.64 µM (inactive); with COLO 205 it was 1.21 µM (inactive); with TK-10, > 19.7 µM (inactive).

Take `O=C1OC[C@@H]2Cc3cc4c(cc3[C@H](c3ccc5c(c3)OCO5)[C@@H]12)OCO4`: the GI50 was 21.9 µM (inactive) in the test on SN12C; 12 µM (inactive) in the test on K562; > 25 µM (inactive) in the test on ACHN; > 25 µM (inactive) with A549; > 25 µM (inactive) in the test on SK-MEL-28; 15.6 µM (inactive) in the test on UO-31. In addition, the GI50 in the test with OVCAR-3 is > 25 µM (inactive); with Malme-3M, > 25 µM (inactive); in the test with RPMI-8226, > 25 µM (inactive); in the test on LOX IMVI it was > 25 µM (inactive); in the test with KM12, > 25 µM (inactive); in the test on MDA-MB-231, 22.7 µM (inactive). The GI50 in the test with M14, in the test with COLO 205 and in the test on TK-10 was > 25 µM (inactive) throughout.

Regarding `CCCCCCCCNC(=O)C1=C(C)NC(C)=C(C(=O)NCCCCCCCC)C1`, the GI50 in the test on SN12C was > 100 µM (inactive); in the test on K562 it was > 100 µM (inactive); in the test with ACHN, 92.7 µM (inactive); in the test on A549, > 100 µM (inactive); in the test with HOP-92, > 100 µM (inactive); with UO-31, 77.6 µM (inactive). Besides, the GI50 is > 100 µM (inactive) with OVCAR-3; 71 µM (inactive) with RPMI-8226; > 100 µM (inactive) in the test with LOX IMVI; 48.2 µM (inactive) in the test with T47D; > 100 µM (inactive) with KM12; 23.2 µM (inactive) in the test with SNB-75. Further, the GI50 in the test with MDA-MB-231 is 69.3 µM (inactive); in the test with M14 it was > 100 µM (inactive); in the test with COLO 205 it was > 100 µM (inactive); in the test with TK-10 it was > 100 µM (inactive).

In the case of `O=[N+]([O-])c1cc2ccc1OCc1cccc(n1)COc1ccc(cc1[N+](=O)[O-])/C=N\CCCCCCCC/N=C\2`, the GI50 in the test on SN12C, with K562, in the test on ACHN, in the test with A549, in the test on HOP-92 and in the test with SK-MEL-28 was > 100 µM (inactive) throughout. The GI50 in the test with UO-31, with OVCAR-3, in the test with A498, in the test with Malme-3M, in the test on RPMI-8226 and in the test with LOX IMVI was > 100 µM (inactive) each time. The GI50 in the test on KM12, in the test on SNB-75, with MDA-MB-231, in the test on M14, in the test on COLO 205 and with TK-10 was > 100 µM (inactive) throughout.

With `O=Cc1ccccc1B(O)O`, the GI50 is > 100 µM (inactive) in the test on SN12C; 23.1 µM (inactive) in the test on K562; 19.1 µM (inactive) with ACHN; 12.7 µM (inactive) in the test on A549; 68.4 µM (inactive) in the test on SK-MEL-28; 54.1 µM (inactive) in the test on UO-31. The GI50 in the test on OVCAR-3 is 33.6 µM (inactive); in the test on RPMI-8226, < 0.01 µM (active); in the test on LOX IMVI, 20.7 µM (inactive); in the test with T47D it was 0.0147 µM (active); with KM12 it was > 100 µM (inactive); in the test on SNB-75, 43.8 µM (inactive). The GI50 in the test on MDA-MB-231 was 37.8 µM (inactive); in the test on M14, > 100 µM (inactive); with COLO 205, 14.7 µM (inactive); in the test with TK-10, 55.6 µM (inactive).

Consider `CC1=C(/C=C/C(=O)O)C(C)(C)CCC1`, for which the GI50 in the test with SN12C, in the test on K562, with ACHN, in the test on A549, with HOP-92 and with SK-MEL-28 was > 100 µM (inactive) each time. The GI50 with UO-31, in the test with OVCAR-3, in the test on A498, with Malme-3M, with RPMI-8226 and with LOX IMVI was > 100 µM (inactive) each time. The GI50 in the test with SNB-75, with MDA-MB-231, in the test on M14, with COLO 205 and with TK-10 was > 100 µM (inactive) in each case.

With `CC1CCc2sc3nc4n(c(=O)c3c2C1)CC(C)S4` (stereo unspecified), the GI50 in the test with SN12C was 21.5 µM (inactive); in the test on K562 it was 24.7 µM (inactive); in the test on ACHN it was 24.9 µM (inactive); in the test on A549, 21 µM (inactive); with HOP-92, 26.1 µM (inactive); with SK-MEL-28, 25.9 µM (inactive). Also, the GI50 with UO-31 is 2.77 µM (inactive); in the test with OVCAR-3 it was 7.6 µM (inactive); with Malme-3M, 25.7 µM (inactive); with RPMI-8226 it was 30.8 µM (inactive); with LOX IMVI, 20.9 µM (inactive); with T47D, 22.4 µM (inactive). Besides, the GI50 in the test with KM12 was 28.3 µM (inactive); in the test on SNB-75, 21.5 µM (inactive); in the test on MDA-MB-231 it was 20.4 µM (inactive); in the test on M14, 25.4 µM (inactive); in the test with COLO 205, 18 µM (inactive); with TK-10, 25.1 µM (inactive).

`CCOC(=O)/C(=C\NC(C)(C)CO)c1nc2ccccc2[nH]1`: the GI50 with SN12C was > 100 µM (inactive); in the test on K562, 75 µM (inactive); in the test on ACHN it was 27.2 µM (inactive); in the test with A549 it was 86.5 µM (inactive); in the test with HOP-92, 77.4 µM (inactive); in the test with SK-MEL-28, 77.8 µM (inactive). The GI50 with UO-31 is 0.426 µM (active); with OVCAR-3, > 100 µM (inactive); in the test on A498 it was 54.6 µM (inactive); in the test on Malme-3M, > 100 µM (inactive); in the test with RPMI-8226, 30.8 µM (inactive); with LOX IMVI, > 100 µM (inactive). Further, the GI50 is 75 µM (inactive) with KM12; > 100 µM (inactive) with SNB-75; > 100 µM (inactive) in the test on M14; 58.9 µM (inactive) with COLO 205; 63.8 µM (inactive) in the test with TK-10.

In the case of `N#CCCC1(CCC#N)S(=O)(=O)OCCOS1(=O)=O`, the GI50 in the test with SN12C is 29.6 µM (inactive); in the test on ACHN, 32.4 µM (inactive); with A549 it was 48.1 µM (inactive); with SK-MEL-28 it was 50 µM (inactive); with UO-31, 50.5 µM (inactive); in the test with OVCAR-3, 32.1 µM (inactive). Also, the GI50 is 46.1 µM (inactive) in the test on Malme-3M; 37 µM (inactive) in the test with RPMI-8226; 18.3 µM (inactive) in the test with LOX IMVI; 43.8 µM (inactive) in the test with T47D; 32 µM (inactive) in the test with KM12; 32.1 µM (inactive) with SNB-75. In addition, the GI50 in the test on M14 is 56.8 µM (inactive); in the test on COLO 205, 85.9 µM (inactive); in the test with TK-10, > 100 µM (inactive).

On to `Cc1ccc(C2CC(=O)CC(c3ccc(C)cc3)C23C(=O)NC(=O)NC3=O)cc1` (stereo unspecified), for which the GI50 was > 100 µM (inactive) in the test on SN12C; 40.4 µM (inactive) with K562; > 100 µM (inactive) in the test on ACHN; > 100 µM (inactive) in the test on HOP-92; > 100 µM (inactive) in the test with SK-MEL-28; > 100 µM (inactive) with UO-31. For the same compound, the GI50 in the test on OVCAR-3, in the test with Malme-3M, in the test on RPMI-8226, in the test with LOX IMVI, in the test with T47D and in the test with KM12 was > 100 µM (inactive) throughout. In addition, the GI50 with SNB-75, in the test on MDA-MB-231, in the test with M14, with COLO 205 and in the test with TK-10 was > 100 µM (inactive) in each case.

As for `SC1=NC2=C(CSC/C2=C\c2ccc(Cl)cc2)C(c2ccc(Cl)cc2)N1` (stereo unspecified), the GI50 in the test with SN12C was 33.2 µM (inactive); in the test on K562, 28.6 µM (inactive); with ACHN, 40 µM (inactive); in the test with A549, 34.4 µM (inactive); in the test with HOP-92, 29.5 µM (inactive); in the test on SK-MEL-28 it was > 100 µM (inactive). In addition, the GI50 was 32.4 µM (inactive) in the test on UO-31; 41.2 µM (inactive) in the test with OVCAR-3; 26.4 µM (inactive) with Malme-3M; 37 µM (inactive) with RPMI-8226; 27 µM (inactive) with LOX IMVI; 28.6 µM (inactive) in the test with T47D. For the same compound, the GI50 in the test with KM12 is 25.9 µM (inactive); in the test with MDA-MB-231, 35.2 µM (inactive); in the test on COLO 205 it was 17.3 µM (inactive); in the test with TK-10 it was 36.6 µM (inactive).

Regarding `CC(=O)N1C(C(=O)NC2CCCCC2)CSC1c1ccccc1` (stereo unspecified), the GI50 in the test on SN12C is > 100 µM (inactive); in the test with K562, > 100 µM (inactive); with ACHN, > 100 µM (inactive); in the test with A549 it was > 100 µM (inactive); with HOP-92, 68.2 µM (inactive); with UO-31, > 100 µM (inactive). Also, the GI50 in the test with OVCAR-3, in the test with A498, in the test with Malme-3M, in the test on RPMI-8226, with LOX IMVI and with KM12 was > 100 µM (inactive) in each case. The GI50 in the test on SNB-75, with M14 and with TK-10 was > 100 µM (inactive) throughout.
